Usually IC50 stands for the concentration that gives 50% inhibition. A higher IC50 goes with a need for much substance.

The assay addresses 5-HT2A receptors (UniProt P14842). Put plainly: in-vitro affinity to 5-HT2A receptors, [3H]ketanserine displacement (Example A1). It counts as binding. The text has this: The 5-HT2A receptors are exposed both to [^3H]ketanserine (a substance known for its affinity to the receptor) and also to the test compound. The decrease in the affinity of [^3H]ketanserine to the receptor is an indication of the affinity of the test substance to the 5-HT2A receptor.
The molecule `CC(C)(C)OC(=O)N1CCN(Cc2cnn(-c3ccc(-c4cccc(F)c4)cc3)c2-c2ccco2)CC1` [Example 638, tert-Butyl 4-[1-(3′-Fluorobiphenyl-4-yl)-5-furan-2-yl-1H-pyrazol-4-ylmethyl]piperazine-1-carboxylate] had an IC50 of 0.042 µM.
The value for `COc1ccc(-c2ccc(-n3ncc(CNCc4ccccn4)c3-c3ccco3)cc2)cc1` [Example 641, [5-Furan-2-yl-1-(4′-methoxybiphenyl-4-yl)-1H-pyrazol-4-ylmethyl]pyridin-2-ylmethylamine] was 0.046 µM; that for `CCC(CO)NCc1cnn(-c2ccc(-c3ccc(F)cc3)cc2)c1-c1ccco1` (centres unmarked) [Example 642, 2-{[1-(4′-Fluorobiphenyl-4-yl)-5-furan-2-yl-1H-pyrazol-4-ylmethyl]amino}butan-1-ol] was 0.047 µM.
Under `O=C1CN(Cc2cnn(-c3ccc(-c4cccc(F)c4)cc3)c2-c2ccco2)CCN1` [Example 645, 4-[1-(3′-Fluorobiphenyl-4-yl)-5-furan-2-yl-1H-pyrazol-4-ylmethyl]piperazin-2-one] stands 0.049 µM.
The molecule `OC1CCCN(Cc2cnn(-c3ccc(-c4ccc(F)cc4)cc3)c2-c2ccco2)C1` (centres unmarked) [Example 646, 1-[1-(4′-Fluorobiphenyl-4-yl)-5-furan-2-yl-1H-pyrazol-4-ylmethyl]piperidin-3-ol] yielded an IC50 of 0.05 µM.
The value for `COc1ccc(-c2ccc(-n3ncc(CN4CCN(C)CC4)c3-c3ccccc3F)cc2)cn1` [Example 648, 1-{5-(2-Fluorophenyl)-1-[4-(6-methoxypyridin-3-yl)phenyl]-1H-pyrazol-4-ylmethyl}-4-methylpiperazine] was 0.053 µM; that for `CN1CCN(Cc2cnn(-c3ccc(-c4ccc(C#N)s4)cc3)c2-c2ccccc2F)CC1` [Example 649, 5-{4-[5-(2-Fluorophenyl)-4-(4-methylpiperazin-1-ylmethyl)pyrazol-1-yl]phenyl}thiophene-2-carbonitrile] was 0.054 µM; that for `CCN1CCN(Cc2cnn(-c3ccc(-c4ccc(F)cc4)cc3)c2-c2cccc(Cl)c2)CC1` [Example 650, 1-[5-(3-Chlorophenyl)-1-(4′-fluorobiphenyl-4-yl)-1H-pyrazol-4-ylmethyl]-4-ethylpiperazine] was 0.054 µM.
`CN1CCN(Cc2cnn(-c3ccc(-c4ccc5c(c4)OCCO5)cc3)c2-n2cccc2)CC1` [Example 651, 1-{1-[4-(2,3-Dihydrobenzo-1,4-dioxin-6-yl)phenyl]-5-pyrrol-1-yl-1H-pyrazol-4-ylmethyl}-4-methylpiperazine] showed an IC50 of 0.055 µM. The IC50 values of the last two molecules are within 1.5-fold of each other.
In turn, `NC1CCN(Cc2cnn(-c3ccc(-c4ccc5c(c4)OCCO5)cc3)c2-c2ccco2)CC1` [Example 652, 1-{1-[4-(2,3-Dihydrobenzo-1,4-dioxin-6-yl)phenyl]-5-furan-2-yl-1H-pyrazol-4-ylmethyl}piperidin-4-ylamine] registered a half-inhibitory concentration (IC50) of 0.055 µM.
As to `CN1CCN(Cc2cnn(-c3ccc(-c4ccc[nH]4)cc3)c2-c2ccccc2F)CC1` [Example 653, 1-{5-(2-Fluorophenyl)-1-[4-(1H-pyrrol-2-yl)phenyl]-1H-pyrazol-4-ylmethyl}-4-methylpiperazine], the IC50 came out at 0.058 µM.
Under `CC(C)CNCc1cnn(-c2ccc(-c3ccc(F)cc3)cc2)c1-c1ccco1` [Example 654, [1-(4′-Fluorobiphenyl-4-yl)-5-furan-2-yl-1H-pyrazol-4-ylmethyl]isobutylamine] stands 0.061 µM.
`Fc1ccc(-c2ccc(-n3ncc(CNCCc4ccncc4)c3-c3ccco3)cc2)cc1` [Example 655, [1-(4′-Fluorobiphenyl-4-yl)-5-furan-2-yl-1H-pyrazol-4-ylmethyl]-(2-pyridin-4-ylethyl)amine] yielded a half-maximal inhibitory concentration (IC50) of 0.067 µM.
Under `COc1ccc(-c2ccc(-n3ncc(CNCc4cc[nH]n4)c3-c3ccco3)cc2)cc1` [Example 656, [5-Furan-2-yl-1-(4′-methoxybiphenyl-4-yl)-1H-pyrazol-4-ylmethyl]-(1H-pyrazol-3-ylmethyl)amine] stands 0.071 µM.

The record behind these values is patent US7842695B2, “Substituted pyrazole compounds” (Merck Patent GmbH, priority 2003, dated 2010).
